Experiments:
SARM1 TIR [1] = target: T1, SARM1 TIR (Homo sapiens (Human), UniProt Q6SZW1); assay: NADase assay with purified bacterial hSARM1-TIR, enzyme inhibition studies; assay type: biochemical; settings: 1 mM in the reaction mixture, 5 min
Target sequence in this assay (Q6SZW1 other isoform, or with tags, fused parts or gaps): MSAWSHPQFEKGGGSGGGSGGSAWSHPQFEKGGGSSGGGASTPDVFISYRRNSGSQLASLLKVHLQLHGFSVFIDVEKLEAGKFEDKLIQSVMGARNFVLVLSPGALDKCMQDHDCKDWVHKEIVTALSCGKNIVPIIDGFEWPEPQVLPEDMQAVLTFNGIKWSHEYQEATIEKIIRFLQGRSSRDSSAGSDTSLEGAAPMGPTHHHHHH
Method: Ten microliters of beads incubated with the indicated cell lysate were incubated with 5 μM NAD in reaction buffer (92.4 mM NaCl and 0.64×PBS). Reactions were carried out at 25° C. for the indicated amount of time and stopped by addition of 1M of perchloric acid (HClO4) and placing the tube on ice. NAD+ metabolites were extracted using HClO4/K2CO3 method and quantified by HPLC (see HPLC for metabolite measurement).
Metabolites were isolated from enzyme reaction mixture by extracting with 1M HClO4, then neutralized with 3M K2CO3, and followed by separation by centrifugation. The supernatant (90 μL) containing the extracted metabolites was mixed with 0.5M Potassium Phosphate buffer (10 μL) and metabolites were analyzed by HPLC (Nexera X2) with Kinetex (100×3 mm, 2.6 μm; Phenomenex) column. […] The levels for each compound in each experimental sample were normalized to the 0 min time point that was analyzed concurrently.
The reaction was stopped after 5 min and NAD+ metabolites were extracted by the perchloric acid method and measured by HPLC as indicated above.

SARM1 SAM-TIR lysate = SARM1 SAM-TIR lysate (Homo sapiens (Human), UniProt Q6SZW1); assay: Luminescence-based NAD+ Glo (NAD+ cycling) assay with SAM-TIR lysate; assay type: biochemical
Excerpt: Luminescence-based assay. This assay can complement the results obtained by HPLC, and can permit a higher throughput of compound library screening than is possible with HPLC methods. This assay is an adaptation of the NAD+/NADH-GLO™ assay (Promega G9071, Promega Corporation, Madison, WI). In this assay, NAD+ cycling enzymes convert NAD+ into NADH. In the presence of NADH, the reductase enzymatically converts a pro-luciferin reductase substrate into luciferin. Luciferin is detected using ULTRA-GLO™ rLuciferase, and the chemiluminescence intensity is proportional to the amount of NAD+ and NADH in the sample. Under the present assay conditions, the amount of NAD+ and NADH present in the lysate is undetectable with this assay, precluding any endogenous contribution to the final NAD+ detected. The assay was set up as follows: 2 μl candidate inhibitor (final concentration 1 μM, 2% DMSO), 0.07 μg lysate (2 μl), and 2 μl of 400 nM NAD+. The reaction was incubated at 37° C. for 60 min, then 6 μl NAD+/NADH-GLO™ detection reagent was added. After 30 min at room temperature, the luminescent signals were quantified using a CYTATION™ 5 imaging reader (BIOTEK®).

SARM1 TIR [2] = target: T1, SARM1 TIR; assay: SARM1 TIR-based assay (bacterially expressed, tagged SARM1 TIR fragment on beads); assay type: biochemical; settings: compound at 5 μM, 5 μM NAD+
Excerpt: The present Example describes a SARM1 TIR-based Assay. This assay is similar to the assay described in Example 1, but allows for the identification and/or characterization of compounds that directly interact with the TIR domain, whereas the assay described in Example 1 can also identify compounds that disrupt SAM domain interactions. This assay makes use of the bacterial expression of a tagged version of the SARM1 TIR fragment that can be affinity purified. Displaying this artificial SARM1 TIR domain on a solid surface (i.e. affinity beads) generates an active NAD+ cleavage enzyme.
The TIR domain of SARM1 was tagged with a tandem STREP-TAG® at the N-terminus, and a polyhistidine tag at the C-terminus, and was cloned into a pET30a+ plasmid. The construct was then transformed into SHuffle® T7 Express Competent E. coli (New England BioLabs, Ipswich, MA) and single colonies were grown overnight. The next day, cultures were diluted in LB media, grown at 30° C. until they reached A600=0.4-0.8, when IPTG (0.5 mM final concentration) was added. The bacteria were grown for an additional 4 h, pelleted by centrifugation, washed with PBS and stored at −80° C. For protein purification, the frozen bacterial pellet was thawed on ice, resuspended in binding buffer (without protease inhibitors) and incubated with 100 μg/mL lysozyme for 15 min on ice. Protease inhibitor cocktail was then added and the cells were lysed by sonication.
The SARM1 TIR protein was first purified by Strep Tag affinity methods where bacterial lysates were incubated with […] (STREP-TACTIN®, IBA GmBH, Gottingen Germany) type 3 XT beads suspension (IBA Lifesciences) for 30 min. The beads were then washed three times with binding buffer, and bound proteins were eluted from MagStrep type 3 XT beads with 22.5 mM biotin for 25 min. Supernatant containing the eluted protein was separated from MagStrep beads, and incubated with 10 μL Co2+ DYNABEAD® (ThermoFisher Scientific, Waltham, MA) suspension for 30 min to bind SARM1-TIR proteins via the His tag. The beads were then washed at least two times with binding buffer and resuspended in 100 μL of binding buffer for NADase assay.
Ten microliters of purified SARM1-TIR laden beads were incubated with 5 μM NAD+ in reaction buffer (92.4 mM NaCl and 0.64×PBS). Reactions were carried out at 25° C. for the indicated amount of time and stopped by addition of 1M of perchloric acid (HClO4) and placing the tube on ice. NAD+ metabolites were extracted using HClO4/K2CO3 method and quantified by HPLC (see metabolite measurement below). For LC-MS/MS analysis, the extraction was performed using 50% methanol in distilled water and chloroform (see LC-MS/MS metabolite measurement below). […] Select potent inhibitors (622608, 622689) identified from SARM1 SAM-TIR lysate screen were added to the reaction at 5 μM. NAD normalized to control at 0 min.
Metabolites were isolated from enzyme reaction mixture by extracting with 1M HClO4, then neutralized with 3M K2CO3, and followed by separation by centrifugation. The supernatant (90 μL) containing the extracted metabolites was mixed with 0.5M Potassium Phosphate buffer (10 μL) and metabolites were analyzed by HPLC (Nexera X2) with KINETEX® (100×3 mm, 2.6 μm; PHENOMENEX®) column and metabolites are monitored with absorbance at 254 nm. Internal standards for NAD+, Nicotinamide (Nam), ADP Ribose (ADPR) were used to generate standard curves for quantification of the respective compounds. The levels for each compound in each experimental sample was normalized to the 0 min time point that was analyzed concurrently.
These analogs were tested using an assay that makes use of a bacterially-expressed tagged version of the SARM1 TIR fragment, as described in Example 2. Displaying this artificial SARM1 TIR domain on a solid surface (i.e. affinity beads) generates an active NAD+ cleavage enzyme.

DRG neurons = assay: In vitro axon degeneration assay after axotomy (degeneration index); assay type: cell-based, mouse
Method: Mouse dorsal root ganglion (DRG) were dissected from embryonic days 13.5 CD1 mouse embryo (˜50 ganglion per embryo) and incubated with 0.05% Trypsin solution containing 0.02% EDTA (Gibco) at 37° C. for 15 min. Then cell suspensions are triturated by gentle pipetting and washed 3 times with DRG growth medium (Neurobasal medium (Gibco) containing 2% B27 (Invitrogen), 100 ng/ml 2.5S NGF (Harlan Bioproduts), 1 μM uridine (Sigma), 1 μM 5-fluoro-2′-deoxyuridine (Sigma), penicillin, and streptomycin). Cells were suspended in DRG growth medium at a ratio of 100 μl medium/50 DRGs. The cell density of these suspensions was ˜7×10^6 cells/ml. Cell suspension (10 μl) was placed in the center of the well using 24-well tissue culture plates (Corning) coated with poly-D-Lysine (0.1 mg/ml; Sigma) and laminin (3 μg/ml; Invitrogen). […]
Axonal degeneration was induced by axotomy or by the addition of vincristine (0.04 μM) using DRG drop cultures in 96 well at DIV 6. […] Axon degeneration was quantified using degeneration index (DI) calculated using ImageJ (NIH, Sasaki et al., 2009, J. Neurosci., […]: 5525-5535). […] The DI was calculated from axon images from the same fields before (0 hour) and after (9-72 hours) axotomy. […] Axon degeneration was monitored by imaging axons before injury, and various time points after axotomy.

SARM1 TIR [3] = target: T1, SARM1 TIR; assay: In vitro NADase assay with SARM1-TIR complexes purified from NRK1-HEK293T cells, substrate specificity; assay type: biochemical
Method: Approximately 10 million cells were plated and transfected the next day with 15 μg of StrepTag SARM1-TIR construct DNA using X-tremeGENE™ 9 reagent (Sigma-Aldrich, St. Louis MO). […] After 2 days the cells were harvested and lysed by sonication in binding buffer (50 mM Sodium Phosphate buffer pH 8, 300 mM Sodium Chloride, 0.01% Tween-20, protease inhibitor tablets). For single step affinity purification, the whole cell lysates were incubated with 20 μL MagStrep (Strep-Tactin) type 3 XT beads suspension (IBA Lifesciences) for 30 min. The beads were then washed three times with binding buffer and resuspended in 100 μL of binding buffer for enzymatic assays and other downstream applications.
Ten microliters of beads incubated with the indicated cell lysate were incubated with 5 μM NAD in reaction buffer (92.4 mM NaCl and 0.64×PBS). […] NAD+ metabolites were extracted using HClO4/K2CO3 method and quantified by HPLC (see HPLC for metabolite measurement). […]
Metabolites were isolated from enzyme reaction mixture by extracting with 1M HClO4, then neutralized with 3M K2CO3, and followed by separation by centrifugation. The supernatant (90 μL) containing the extracted metabolites was mixed with 0.5M Potassium Phosphate buffer (10 μL) and metabolites were analyzed by HPLC (Nexera X2) with Kinetex (100×3 mm, 2.6 μm; Phenomenex) column. […]
Target sequence in this assay (Q6SZW1 561-724): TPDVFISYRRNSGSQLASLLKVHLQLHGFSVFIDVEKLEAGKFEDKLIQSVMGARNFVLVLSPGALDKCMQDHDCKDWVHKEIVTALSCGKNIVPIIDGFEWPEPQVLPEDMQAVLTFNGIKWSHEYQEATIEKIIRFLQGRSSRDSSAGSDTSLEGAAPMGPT

Chain of SARM1 SAM-TIR lysate (Q6SZW1 other isoform, or with tags, fused parts or gaps): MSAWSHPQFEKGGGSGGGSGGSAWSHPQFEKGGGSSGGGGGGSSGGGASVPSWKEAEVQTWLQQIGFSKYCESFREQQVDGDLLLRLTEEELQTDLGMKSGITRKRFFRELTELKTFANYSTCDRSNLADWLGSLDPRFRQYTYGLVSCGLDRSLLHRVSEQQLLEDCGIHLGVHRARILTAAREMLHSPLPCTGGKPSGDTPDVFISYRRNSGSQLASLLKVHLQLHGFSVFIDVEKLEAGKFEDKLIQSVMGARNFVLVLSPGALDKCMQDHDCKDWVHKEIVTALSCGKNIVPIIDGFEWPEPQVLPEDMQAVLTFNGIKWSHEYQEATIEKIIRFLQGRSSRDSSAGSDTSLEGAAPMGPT

## Nc1ncnc2c1ncn2[C@@H]1O[C@H](COP(=O)(O)OP(=O)(O)OC[C@H]2OC(O)[C@H](O)[C@@H]2O)[C@@H](O)[C@H]1O (stereo partly drawn) [ADPR, ADP Ribose]
SARM1 TIR [1]
  inhibition of SARM1-TIR NADase activity: did not inhibit

## Br.CN(C)c1nc(=NCc2ccco2)ss1 [NSC622608]
SARM1 SAM-TIR lysate
  IC50: ~150 nM
SARM1 TIR [2]
  inhibition of NADase activity of purified SARM1 TIR: inhibit NADase activity of purified SARM1 TIR
DRG neurons; 0.05 to 5 μM, added 30 min before axotomy
  dose dependence of inhibition of axon degeneration: dose dependent inhibition of axon degeneration
DRG neurons; 24 h after axotomy
  protection from axon degeneration (degeneration index): significant protection

## Nc1ncnc2c1ncn2[C@@H]1O[C@H](COP(=O)(O)OP(=O)(O)OC[C@H]2O[C@@H]([n+]3cccc(C(=O)O)c3)[C@H](O)[C@@H]2O)[C@@H](O)[C@H]1O [NaAD, Nicotinic Acid Adenine Dinucleotide]
SARM1 TIR [3]
  degradation by wild type SARM1-TIR complexes (substrate specificity): do not degrade

Source: US11903935B2, “Inhibitors of SARM1 NADase activity and uses thereof” (Washington University, priority 2016, dated 2024)
